From publication PMC10657467, “Mechanically-primed voltage-gated proton channels from angiosperm plants” (Nature Communications, 2023) come the findings set out here.

Common to all, as to type: cell-based
One assay addresses T1, AtHv1 (Arabidopsis thaliana, UniProt Q9SGX2).
T1 construct: gene At1g10800; full-length channel (NP_001321473.1, 236 a.a.) expressed in Xenopus oocytes, after mechanical stimulus
T1 sequence (Q9SGX2 1-236): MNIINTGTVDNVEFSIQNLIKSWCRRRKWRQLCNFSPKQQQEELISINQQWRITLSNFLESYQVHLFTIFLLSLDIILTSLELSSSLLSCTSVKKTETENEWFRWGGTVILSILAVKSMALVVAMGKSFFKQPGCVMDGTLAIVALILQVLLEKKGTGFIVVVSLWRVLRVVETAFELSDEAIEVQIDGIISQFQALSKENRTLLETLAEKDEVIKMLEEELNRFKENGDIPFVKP
As to the kind of experiment: inside-out patch-clamp of proton currents. A general note: The patch-clamp technique gives a direct electrical read-out from membranes.

A further assay addresses T2, SmHv1 (Selaginella moellendorffii, UniProt D8SZW5).
T2 construct: gene SELMODRAFT_128853; full-length channel (EFJ10096.1, 242 a.a.) expressed in Xenopus oocytes, after mechanical stimulus
T2 sequence (D8SZW5 1-242): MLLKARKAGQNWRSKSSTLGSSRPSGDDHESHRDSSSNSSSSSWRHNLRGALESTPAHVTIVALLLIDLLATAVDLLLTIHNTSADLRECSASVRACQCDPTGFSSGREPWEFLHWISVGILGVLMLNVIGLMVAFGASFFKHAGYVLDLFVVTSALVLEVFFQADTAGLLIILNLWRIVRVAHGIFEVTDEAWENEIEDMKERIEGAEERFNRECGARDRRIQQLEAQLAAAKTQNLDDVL
Briefly: inside-out patch-clamp of proton currents.

The target of another assay is T3, PsHv1 (Picea sitchensis, UniProt B8LLA1).
T3 construct: full-length channel (ABR16431.1, 260 a.a.) expressed in Xenopus oocytes
T3 sequence (B8LLA1 1-260): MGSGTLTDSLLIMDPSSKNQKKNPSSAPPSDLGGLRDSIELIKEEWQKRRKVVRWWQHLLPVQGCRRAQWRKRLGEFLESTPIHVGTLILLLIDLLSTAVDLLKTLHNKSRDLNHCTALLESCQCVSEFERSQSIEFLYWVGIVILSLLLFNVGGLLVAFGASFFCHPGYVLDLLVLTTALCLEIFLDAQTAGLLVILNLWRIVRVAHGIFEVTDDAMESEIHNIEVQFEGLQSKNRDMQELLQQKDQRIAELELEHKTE
As to the kind of experiment: inside-out patch-clamp of proton currents, Hill fit.

One may read the IC50 as the concentration at which inhibition is half-maximal. Read a low IC50 as higher potency.

On to `N=C(N)Nc1nc2ccccc2[nH]1` [2GBI, 2-guanidinobenzimidazole], for which the “inside-out patch-clamp of proton currents” value was “Despite some small differences in the extent of inhibition by 2GBI, AtHv1, SmHv1, and PsHv1 shared a low sensitivity” at AtHv1; “Despite some small differences in the extent of inhibition by 2GBI, AtHv1, SmHv1, and PsHv1 shared a low sensitivity” at SmHv1. The IC50 on PsHv1 came to 372 ± 28 µM.

`N=C(N)Nc1nc2ccc(Cl)cc2[nH]1` [ClGBI, 5-chloro-2-guanidinobenzimidazole]: the “inside-out patch-clamp of proton currents” value was “we tested the effects of 2GBI and ClGBI on AtHv1- and SmHv1-mediated currents post-mechanical stimulation” on AtHv1; “we tested the effects of 2GBI and ClGBI on AtHv1- and SmHv1-mediated currents post-mechanical stimulation” on SmHv1. At PsHv1, this compound displayed an IC50 of 39 ± 8 µM.
